The text below walks through data of US20240307334A1 (Lieber Institute, Inc., priority 2023, published 2024).

Series [1] concerns Tcf4+/tr mouse model of PTHS. Briefly: Novel open field assay (locomotor activity and anxiety). It is filed as in vivo. The following applies: Tcf4+/tr mice. As for the experimental part:
(§1) The final pH was approximately 5.
(§2) Mice were dosed at 1.0 mg/kg/day for 14 days with either Sob-AM2 or NMP/Kolliphor solution (vehicle).
Locomotor activity and anxiety was assessed using Noldus PhenoTyper cages as previously shown. Mickelsen et al., 2019. Each cage is outfitted with two sets of cameras; one on the ceiling that faces the platform (35 cm×35 cm), and another pointed at the side of the cage. Mice were acclimated to the experimentation room in their home cages for at least 1 h. During acclimation, the Noldus EthoVision software was set-up to track movement for 30 total minutes. After acclimation, mice were placed in the center of the open field, opaque Plexiglas was placed on all four sides of the cage to obscure any visual cues, and the trial was started in the EthoVision software. After 30 min, the trial ended, and mice were placed back into their home cages. Noldus EthoVision software was used to determine distance traveled, time spent in center, and frequency of going to center.
Next we treated Tcf4^+/tr mice and Tcf4^+/+ littermates with Sob-AM2 for 14 days and then assayed their behavior in the open field (FIG. 8A).

For series [2] the following is noted: following systemic administration, prodrug compared with sobetirome; cited from earlier work.
The subject of series [3] is Tcf4+/tr mouse model of PTHS. Kind of series: In vivo immunohistochemical (IHC) quantification of OPCs and OLs after two-week intraperitoneal dosing.
From the text: The Tcf4^+/tr mouse model of PTHS is heterozygous for an allele encoding deletion of the DNA-binding domain of TCF4 (B6; 129-TCF4tmlZhu/J, stock number 013598, Jackson Laboratory). This mouse colony was backcrossed for at least six generations, maintained by The Lieber Institute for Brain Developments Animal Facility on a 12-h light/dark cycle and fed ad libitum. Tcf4^+/tr mouse samples were matched with samples from Tcf4^+/+ littermates, and sex was randomly selected in each genotype and age group. All procedures were performed in accordance with the National Institutes of Health Guide for the Care and Use of Laboratory Animals and approved by the Johns Hopkins University School of Medicine's Institutional Animal Care and Use Committee.
as §1, §2
(§3) Cells were rinsed 1× with PBS and then fixed with 4% paraformaldehyde (PFA) for 5 minutes, following fixation cells were rinsed 3× with PBS. Similarly, mice were perfused with 20-30 mLs of 1× PBS, followed by 20-30 mLs of 4% PFA. Tissue was extracted and post fixed in 4% PFA on a rocker at 4° C. overnight. For immunostaining cells were rinsed 3× with 0.04% Tween 20 (Sigma 655204) while tissue (P42 mouse) was rinsed 3× with 0.4% Triton (Sigma X100). Cells were blocked in respective serum (10%) for 2 hours at room temperature on an orbital shaker. Following block, primary antibody was added in 2% serum in 0.04% Tween 20 for cells and 0.4% Triton-X 100 for tissue, and incubated overnight at 4° C. Following overnight incubation cells were rinsed 3× with 0.04% Tween 20 or 0.4% Triton respectively before adding the secondary antibody to incubate at room temperature for 2 hours. After incubation, cells were rinsed 3× in respective buffers and counterstained with DAPI (Invitrogen™, D1306). Visualization was carried out on a ZEISS LSM 700 Confocal. Imaging and quantification were performed blind to genotypes and conditions/treatments.
Next, we assessed the effectiveness of Sob-AM2 in vivo by dosing Tcf4^+/tr mice and Tcf4^+/+ littermates intraperitoneally with either Sob-AM2 (1 mg/kg) or vehicle for two weeks followed by immunohistochemical (IHC) quantification (FIG. 7D).

The subject of series [4] is primary OPC/OL cultures from Tcf4+/tr and Tcf4+/+ mice. Briefly: Primary OPC and OL cultures: immunocytochemistry quantification of OPCs and OLs normalized to Olig2. Format: cell-based, mouse. The following applies: for OPCs (PDGFRα+/Olig2+) / mature OLs (MBP+/Olig2+): Tcf4+/tr cells. As for the experimental part: Mice were dosed at 1.0 mg/kg/day for 14 days with either Sob-AM2 or NMP/Kolliphor solution (vehicle). Initial dosing was performed at P28 up until P42 when animals were then used for subsequent experiments.
Primary OPC and OLs were obtained following a previous protocol^19. In brief, P2-P3 pups were dissociated and plated at a density of 10.0×10^3 cells/cm^2 in a 96 well ibidi plate coated in 0.1% polyethyleneimine (PEI) and 0.5-μg/mL laminin. Cells were plated and maintained in OPC proliferation media consisting of 1× StemPro Neural supplement (Thermo Fisher Scientific, A1050801), 1× Anti-Anti (Thermo Fisher Scientific, 15240-096), 10 ng/mL of Human FGF-basic (Peprotech, 100-18B) and 30 ng/mL rhPDGF-AA (R&D systems, 221-AA), with a half media exchange on DIV4.
as §3
Mei et al., 2014; Yoshida et al., 2020. Following a previously established protocol, Yoshida et al., 2020, we dissociated and plated OPCs from both Tcf4^+/+ and Tcf4^+/tr mice onto 96-well plates in OPC proliferation media. […] We performed blinded quantification of OPCs and OLs using antibodies against PDGFRα and MBP, respectively, and normalized our counts with the pan-OL marker OLIG2 (FIG. 1B).
Hartley et al., 2019. We performed blinded quantification of OPCs and OLs using antibodies against PDGFRα and MBP, respectively, and normalized our counts with the pan-OL marker OLIG2 (FIG. 7A).

The next series relates to multiple sclerosis. The following applies: phase 2 clinical trial for multiple sclerosis; cited from earlier work.
Series [5] relates to Tcf4+/tr mouse model of PTHS. Kind of series: Transmission electron microscopy (TEM) of myelination in the corpus callosum. Format: in vivo. The protocol: 5% DMA (dimethylacetamide, Sigma 271012) was added up to the total volume needed. […] The mixture was shaken vigorously (vortex) and was ready for administration for intraperitoneal (1P) dosing at 10 mL/kg. The final pH was approximately 5. […] Initial dosing was performed at P28 up until P42 when animals were then used for subsequent experiments.
After perfusion with a 0.1 M sodium cacodylate buffer, pH 7.2, containing 2% paraformaldehyde (freshly prepared from EM grade aqueous solution), 2% glutaraldehyde, and 3 mM MgCl2, p42 mouse brains were kept overnight in fixative. The next day brains were dissected in fixative and rinsed with sodium cacodylate buffer. Samples were then post-fixed in reduced 2% osmium tetroxide, 1.6% potassium ferrocyanide in buffer (2 hr) on ice in the dark. Following a dH2O rinse, samples were stained with 2% aqueous uranyl acetate (0.22 μm filtered, 1 hr, dark), dehydrated in a graded series of ethanol, propylene oxide and embedded in Eponate 12 (Ted Pella) resin. Samples were polymerized at 60° C. overnight. Thin sections, 60 to 90 nm, were cut with a diamond knife on the Reichert-Jung Ultracut E ultramicrotome and picked up with copper slot (1×2 mm) grids. Grids were stained with 2% uranyl acetate and observed with a Phillips CM120 TEM at 80 kV. Images were captured with an AMT XR80 CCD camera. Preparation of samples, TEM imaging, and quantification was performed blind to genotypes.
Blinded to genotype and condition, TEM images were taken on the CC directly above the hippocampus from anatomically equivalent tissue sections in littermates. […] To further validate this, we quantified BCAS1+ cells (pre-myelinating OLs).

Where [6] appears, read: Sob-AM2 for 14 days, compared to vehicle-treated Tcf4+/tr littermates.
The mark [7] stands for this setting: Tcf4+/tr mice, Sob-AM2 1 mg/kg intraperitoneally for two weeks.
The mark [8] stands for this setting: clemastine for 14 days, 30 min open field.
[9] abbreviates: clemastine (1 μM) DIV7 to DIV14, compared to vehicle treated Tcf4+/tr cells.
Setting [10] is: Tcf4+/tr mice, clemastine 10 mg/kg intraperitoneally for two weeks (P28-P42).
The mark [11] stands for this setting: sobetirome (1 μM) 7 days to DIV14, compared to vehicle-treated Tcf4+/tr cells.

Structures can show the parent of a compound that is named as a salt.

For `CNC(=O)COc1cc(C)c(Cc2ccc(O)c(C(C)C)c2)c(C)c1` [Sob-AM2], in series [1] (setting [6]), the “frequency of entering the center of the open field” value is given as “reduction in the frequency of entering the center of the open field” and the total distance traveled entry is “significant reduction in total distance traveled”. For the same compound, the “crossing of the blood brain barrier and distribution to the central nervous system” value in series [2] is recorded as “better able to cross the blood brain barrier”. In series [3] (setting [7]), the “OPCs (PDGFRα+/Olig2+)” value is “significant decrease in OPCs” and the “mature OLs (CC1+/Olig2+)” value is reported as “significant increase in mature OLs”.

As for `CN1CCC[C@@H]1CCO[C@](C)(c1ccccc1)c1ccc(Cl)cc1` [clemastine, clemastine fumarate], in series [1] (setting [8]), the “frequency of entering the center of the field” value is “reduction in the frequency of entering the center of the field” and the total distance traveled result is listed as “significant reduction in total distance traveled”. In series [4] (setting [9]), the “OPCs (PDGFRα+/Olig2+)” value was “significant reduction in OPCs” and the “mature OLs (MBP+/Olig2+)” value is given as “an increase in OLs”. Also, the “total number of Olig2 positive cells, in vitro” value in series [4] (all conditions, in vitro assay) is “no effect on the total number of Olig2 positive cells”. In addition, the remyelination in patients result in the series on multiple sclerosis is listed as “showed remyelination capabilities”. Also, in series [3] (Tcf4+/tr mice, 14 days clemastine), the “number of BCAS1+ cells (pre-myelinating OLs)” value was “significantly increased the number of BCAS1+ cells”. In series [3] (setting [10]), the “OPCs (PDGFRα+/Olig2+)” value is listed as “significant decrease in OPCs” and the “mature OLs (CC1+/Olig2+)” value was “significant increase in mature OLs”. Also, the “total number of Olig2 positive cells, in vivo” value in series [3] (all conditions, in vivo assay) is given as “no effect on the total number of Olig2 positive cells”. Also, in series [5] (Tcf4+/tr mice, clemastine vs vehicle-treated Tcf4+/tr mice), the “density of uncompacted myelin” value was “significantly increased the density of uncompacted myelin”. Further, the “proportion of uncompacted myelin” value in series [5] (Tcf4+/tr mice, relative to vehicle-treated Tcf4+/+ mice) is “normalized the proportion of uncompacted myelin”. Also, in series [5] (Tcf4+/tr mice, two week clemastine treatment), the total myelin density entry is listed as “unable to restore Tcf4^+/+ levels of total myelin density”. In addition, the “proportion of compact myelin per image” value in series [5] (clemastine Tcf4+/+ and clemastine Tcf4+/tr) is given as “less compaction overall”.

`Cc1cc(OCC(=O)O)cc(C)c1Cc1ccc(O)c(C(C)C)c1` [sobetirome]: in series [4] (setting [11]), the “OPCs (PDGFRα+/Olig2+)” value is “significant reduction in OPCs” and the “mature OLs (MBP+/Olig2+)” value was “an increase in OLs”.
